Reference: patent US6268220A, “Diagnostic method for atherosclerosis” (Washington University, priority 1996, dated 2001)
“Also recorded” adds a separate entry of the source.

Legend:
[1] = system: apolipoprotein B100 of LDL; test: Production of 3-chlorotyrosine in LDL modified by different oxidation systems; type: biochemical, human; conditions: 37° C.; for 3-chlorotyrosine content of LDL exposed to oxidation system: LDL 512 μg protein/ml, pH 7.4, 60 min or 24 h, FIG. 2, result in words
Protocol: FIG. 2 show production of 3-chlorotyrosine in LDL modified by different oxidation systems. LDL (512 μg protein/ml) was incubated at 37° C. in phosphate buffered saline (10 mM sodium phosphate, 150 mM NaCl, pH 7.4) alone (Control) or with the indicated oxidation system. The complete myeloperoxidase-H2 O2 --Cl^- system consisted of 20 nM myeloperoxidase and 100 μM H2 O2. HOCl was used at 100 μM. Horseradish peroxidase (10 μg/ml and lactoperoxidase (10 μg/ml) were used with 100 μM H2 O2. LDL was exposed to myeloperoxidase, HOCl, horseradish peroxidase and lactoperoxidase for 60 min.
All other oxidation reactions were carried out for 24 h. Final concentrations of oxidants were: peroxynitrite, 100 μM; CuSO4, 10 μM; CuSO4 and H2 O2, 100 μM and 2 mM, respectively; FeSO4, 10 μM; hemin, 10 μM; and glucose, 100 mM. LDL oxidation by lipoxygenase was performed in 50 mM borate, 150 mM NaCl supplemented with phospholipase A2 as previously described (45).
Reaction products were delipidated, acid hydrolyzed, and the 3-chlorotyrosine content of the amino acid hydrolysate determined by stable isotope dilution GC-MS analysis. Values are the mean of duplicate determinations. […] HRP, horseradish peroxidase; MPO, myeloperoxidase-peroxidase.
The complete system consisted of Buffer B (20 mM Na[PO4 ], pH 7.0, 100 μM DTPA) supplemented with LDL (512 μg protein/ml), myeloperoxidase (MPO; 40 nM), H2 O2 (100 μM) and Cl^- (as NaCl; 100 mM). After a 1 h incubation at 37° C., the 3-chlorotyrosine content was determined by stable isotope dilution GC-MS as described under "Methods." The limit of detection of the assay was <0.1 umol 3-chlorotyrosine per mol L-tyrosine. Values are the mean of duplicate determinations.

Human neutrophils = test: Formation of 3-chlorotyrosine in LDL exposed to activated human phagocytes; type: cell-based; conditions: FIG. 1
Protocol: Human neutrophils (1×10^6 /ml) were incubated at 37° C. in Hank's Balanced Salt Solution supplemented with DTPA (100 μM) and LDL (512 μg protein/ml). Neutrophils were activated with phorbol ester (PMA; 200 nM) and maintained in suspensions by intermittent inversion (Complete neutrophil system).
Following a 60 min incubation, neutrophils were removed by centrifugation. The supernatant was delipidated and dialyzed, ^13 C-labeled internal standards were added, and the samples were then subjected to acid hydrolysis. The content of L-tyrosine and 3-chlorotyrosine in acid hydrolysates were determined by stable isotope dilution GC-MS analysis as described under "Method", below.
Additions or deletions to the complete system were as indicated. The final concentrations of additions were:
3-Chlorotyrosine content of LDL is normalized to the content of the precursor amino acid L-tyrosine. Values are the mean of duplicate determinations.
(§1) General Procedures--All glassware was rendered chlorine-demand free (<3% consumption of 1 mM HOCl in a 10 min incubation at 37° C. within a gas-tight vial as monitored by the oxidation of iodide to triiodide) prior to use (12,25,27). […] Myeloperoxidase (donor: hydrogen peroxide, oxidoreductase, EC 1.11.1.7) was isolated (final A430 /A280 ratio of 0.6) as previously described (28,29). Enzyme concentration was determined spectrophotometrically ε430 =[…] cm^-1; ref. 30). Human neutrophils were isolated by buoyant density centrifugation (31). Medium A (Hank's balanced salt solution (magnesium-, calcium-, phenol- and bicarbonate-free; Gibco-BRL, Gaithersburg, Md.), pH 7.2, supplemented with 100 μM diethylenetriamine pentaacetic acid (DTPA) was used for neutrophil isolation and experiments.

myeloperoxidase = target: T1, myeloperoxidase (Homo sapiens, UniProt P05164); test: Chlorination of apolipoprotein B100 of LDL by the myeloperoxidase-H2O2-Cl- system (3-chlorotyrosine by GC-MS); type: biochemical; conditions: for 3-Chlorotyrosine/L-Tyrosine: Complete system (LDL 512 μg protein/ml, MPO 40 nM, H2O2 100 μM, Cl- 100 mM) plus additive at printed concentration, 1 h, 37° C., complete system alone 50, detection limit <0.1
T1 construct: light and heavy chains, homodimer) with H2O2, chloride and human LDL as substrate
T1 sequence (P05164 49-745): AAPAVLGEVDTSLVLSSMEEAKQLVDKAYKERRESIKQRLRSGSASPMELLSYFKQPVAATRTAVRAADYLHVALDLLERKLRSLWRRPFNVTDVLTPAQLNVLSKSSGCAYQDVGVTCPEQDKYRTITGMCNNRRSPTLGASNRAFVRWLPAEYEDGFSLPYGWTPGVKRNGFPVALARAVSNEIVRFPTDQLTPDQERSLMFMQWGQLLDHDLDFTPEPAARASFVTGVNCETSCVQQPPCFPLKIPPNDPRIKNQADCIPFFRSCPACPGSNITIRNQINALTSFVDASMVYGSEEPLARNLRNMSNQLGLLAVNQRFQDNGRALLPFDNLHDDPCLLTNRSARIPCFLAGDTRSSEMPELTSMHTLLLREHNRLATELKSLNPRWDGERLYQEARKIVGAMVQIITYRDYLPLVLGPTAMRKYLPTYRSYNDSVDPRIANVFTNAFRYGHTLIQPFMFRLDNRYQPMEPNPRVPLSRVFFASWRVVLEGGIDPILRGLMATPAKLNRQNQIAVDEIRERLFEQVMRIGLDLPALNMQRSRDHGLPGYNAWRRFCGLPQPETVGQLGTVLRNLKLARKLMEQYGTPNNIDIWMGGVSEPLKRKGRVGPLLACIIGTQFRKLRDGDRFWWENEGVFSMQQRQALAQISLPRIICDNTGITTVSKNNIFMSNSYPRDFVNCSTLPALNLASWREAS
Protocol: as §1
Following the addition of 10 pmol 3-[^13 C6 ]chlorotyrosine and 100 nmol L-[^13 C6 ]tyrosine, delipidated and dialyzed protein (~1-4 mg) suspended in Buffer B was dried under vacuum in a glass reaction vial. Each vial then received 0.5 ml HBr (6 N) containing 1% phenol. […]
Mass Spectrometric Analysis--n-Propyl, perheptafluorobutyl (HFB) and n-propyl, perpentafluoroproprionyl (PFP) derivatives of amino acids were prepared (38) and analyzed on a Hewlett Packard 5890 Gas Chromatograph interfaced with a Hewlett Packard 5988A Mass Spectrometer equipped with extended mass range. […]
Amino acids were quantified utilizing stable isotope dilution GC-MS analysis in the negative-ion chemical ionization mode (25,26). 3-Chlorotyrosine was monitored as its n-propyl-per-HFB derivative utilizing selected ion monitoring of the base peak at mass-to-charge ratio (m/z) 451 (M^.- -HFB), another prominent ion at m/z 629 (M^.- -HF), and their isotopically labeled internal standard ions at m/z 457 and 635, respectively.
L-Tyrosine was monitored as its n-propyl-per-HFB derivative using the base peak at m/z 417 (M^.- -HFB), another major ion at m/z 595 (M^.- -HF), and their labeled internal standard ions at m/z 423 and 601, respectively. […]

[2] = PMA-activated human neutrophils 1×10^6/ml, 60 min, 37° C., additive to complete neutrophil system

OCl [HOCl, hypochlorous acid]
3-chlorotyrosine content of LDL exposed to oxidation system [1]: resulted in 3-chlorotyrosine formation; also recorded: Significant levels
3-Chlorotyrosine/L-Tyrosine ([1]; LDL + HOCl (100 μM), no enzyme, 1 h): 68 umol/mol

C[C@H](CCC(=O)O)C[C@H](C)C[C@H](C)C(=O)/C=C(\O)[C@H](C)C[C@H](C)C/C=C/[C@@H](C)[C@@H](O)[C@@H](C)[C@@H](O)C[C@@H]1CC[C@@](C)([C@H]2CC[C@@](C)([C@@H](C)O)O2)O1 [ionomycin]
3-chlorotyrosine production in LDL incubated with activated phagocytes (Human neutrophils; ionomycin (1 μM) added together with superoxide dismutase (10 μg/ml)): further generation

O=S(=O)([O-])[O-].[Fe+2] [iron, FeSO4]
3-chlorotyrosine content of LDL exposed to oxidation system [1]: little change

O=NOO [peroxynitrite]
3-chlorotyrosine content of LDL exposed to oxidation system [1]: little change

[N-]=[N+]=[N-].[Na+] [NaN3]
3-Chlorotyrosine/L-Tyrosine (myeloperoxidase): 0 umol/mol
3-chlorotyrosine production in LDL incubated with activated phagocytes (Human neutrophils; [2]): inhibited

superoxide dismutase: catalyzes the conversion of O2.- into H2O2
3-chlorotyrosine production in LDL incubated with activated phagocytes (Human neutrophils; [2]): further generation

horseradish peroxidase
3-chlorotyrosine content of LDL exposed to oxidation system [1]: little change

glucose
3-chlorotyrosine content of LDL exposed to oxidation system [1]: little change

O=S(=O)([O-])[O-].[Cu+2] [copper, CuSO4]
3-chlorotyrosine content of LDL exposed to oxidation system [1]: little change

lactoperoxidase
3-chlorotyrosine content of LDL exposed to oxidation system [1]: little change

B1: Catalase: a peroxide scavenger (protein, UniProt P00432 2-527, looked up)
Catalase: ADNRDPASDQMKHWKEQRAAQKPDVLTTGGGNPVGDKLNSLTVGPRGPLLVQDVVFTDEMAHFDRERIPERVVHAKGAGAFGYFEVTHDITRYSKAKVFEHIGKRTPIAVRFSTVAGESGSADTVRDPRGFAVKFYTEDGNWDLVGNNTPIFFIRDALLFPSFIHSQKRNPQTHLKDPDMVWDFWSLRPESLHQVSFLFSDRGIPDGHRHMNGYGSHTFKLVNANGEAVYCKFHYKTDQGIKNLSVEDAARLAHEDPDYGLRDLFNAIATGNYPSWTLYIQVMTFSEAEIFPFNPFDLTKVWPHGDYPLIPVGKLVLNRNPVNYFAEVEQLAFDPSNMPPGIEPSPDKMLQGRLFAYPDTHRHRLGPNYLQIPVNCPYRARVANYQRDGPMCMMDNQGGAPNYYPNSFSAPEHQPSALEHRTHFSGDVQRFNSANDDNVTQVRTFYLKVLNEEQRKRLCENIAGHLKDAQLFIQKKAVKNFSDVHPEYGSRIQALLDKYNEEKPKNAVHTYVQHGSHLSAREKANL
3-Chlorotyrosine/L-Tyrosine (myeloperoxidase): 0 umol/mol
Chlorination of apolipoprotein B100 (3-chlorotyrosine production) by myeloperoxidase-H2O2-Cl- system (myeloperoxidase; additive to complete system, result in words): blocked
3-chlorotyrosine production in LDL incubated with activated phagocytes (Human neutrophils; [2]): inhibited
